Measured values taken from patent EP0411334B1, “Antiherpes pentapeptide derivatives having a substituted aspartic acid side chain” (BIO-MEGA/BOEHRINGER INGELHEIM RESEARCH INC., priority 1989, dated 1991).
pIC50: −log10 of the molar value. Where a SMILES comes first, the peptide text is derived from it. [ ]: non-standard residue; d: D form. The star is where a group is joined. Dihydrocaffeoyl = O=C(CCc1ccc(O)c(O)c1)*; Benzoyl(2-Ph) = O=C(c1ccccc1-c1ccccc1)*; Desaminotyrosyl = O=C(CCc1ccc(O)cc1)*; Hydrocinnamoyl = O=C(CCc1ccccc1)*; N(Me)CH2CH2Ph = CN(CCc1ccccc1)*; Pentanoyl(4-Me) = CC(C)CCC(=O)*; O(2S-octyl) = CCCCCC[C@H](C)O*; NHPhenethyl = c1ccc(CCN*)cc1; NMeV = CN[C@H](C(=O)O)C(C)C; Morpholide = C1CN(*)CCO1; Pyrrolidide = C1CCN(*)C1; NiPr2 = CC(C)N(C(C)C)*; X1 = CCCCCC[C@@H](C)O*; X3 = c1ccc(CCCO*)cc1; X8 = CN(CCc1ccccn1)*; Bz = O=C(c1ccccc1)*; NHPh = c1ccc(N*)cc1; N(Me)OMe = CON(C)*; NEt2 = CCN(CC)*

target: HSV-1 ribonucleotide reductase (Human herpesvirus 1, UniProt P08543); assay: biochemical
Sequence (P08543 whole entry): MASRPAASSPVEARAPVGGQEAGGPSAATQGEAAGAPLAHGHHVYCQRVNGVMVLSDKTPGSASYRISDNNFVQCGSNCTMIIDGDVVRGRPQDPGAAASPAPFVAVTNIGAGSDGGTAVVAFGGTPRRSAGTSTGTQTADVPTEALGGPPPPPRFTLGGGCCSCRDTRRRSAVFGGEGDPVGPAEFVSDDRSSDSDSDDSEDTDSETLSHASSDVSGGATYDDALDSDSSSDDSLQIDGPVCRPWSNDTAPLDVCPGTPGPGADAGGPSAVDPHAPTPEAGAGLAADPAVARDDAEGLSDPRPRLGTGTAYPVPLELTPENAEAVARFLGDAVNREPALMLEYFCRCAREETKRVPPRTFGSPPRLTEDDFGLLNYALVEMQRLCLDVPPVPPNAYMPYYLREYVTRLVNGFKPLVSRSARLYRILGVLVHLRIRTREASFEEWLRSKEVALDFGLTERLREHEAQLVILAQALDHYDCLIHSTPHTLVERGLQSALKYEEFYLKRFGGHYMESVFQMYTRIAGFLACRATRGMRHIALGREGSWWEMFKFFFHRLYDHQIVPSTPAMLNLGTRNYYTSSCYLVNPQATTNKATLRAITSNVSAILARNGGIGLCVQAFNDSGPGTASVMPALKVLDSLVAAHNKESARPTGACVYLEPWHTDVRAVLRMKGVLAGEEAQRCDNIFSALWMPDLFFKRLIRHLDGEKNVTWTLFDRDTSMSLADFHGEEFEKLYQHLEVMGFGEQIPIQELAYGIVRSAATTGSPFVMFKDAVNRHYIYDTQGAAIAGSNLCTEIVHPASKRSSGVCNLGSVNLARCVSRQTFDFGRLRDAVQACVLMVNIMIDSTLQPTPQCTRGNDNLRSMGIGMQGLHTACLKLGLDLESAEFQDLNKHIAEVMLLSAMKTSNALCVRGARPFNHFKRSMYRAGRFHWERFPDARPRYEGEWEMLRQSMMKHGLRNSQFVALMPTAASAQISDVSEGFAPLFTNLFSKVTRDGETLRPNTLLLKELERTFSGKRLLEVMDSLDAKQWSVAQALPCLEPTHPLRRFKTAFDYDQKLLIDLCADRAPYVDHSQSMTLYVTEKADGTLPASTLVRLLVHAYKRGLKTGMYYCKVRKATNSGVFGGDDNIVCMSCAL
Text: Inhibition of Herpes Simplex Virus (HSV, type 1) Ribonucleotide Reductase
• a) Preparation of Enzyme HSV-1 ribonucleotide reductase (partially purified) was obtained from quiescent BHK-21/C13 cells infected with strain F HSV-1 virus at 10 plaque forming units/cell as described by E.A. Cohen et al., J. Gen. […] The number of units of the enzyme preparation used in each assay was constant, based on the specific activity of the enzyme preparation.

| SMILES | pIC50 |
| --- | --- |
| CCCCCC[C@H](C)OC(=O)C[C@H](NC(=O)[C@@H](NC(=O)[C@H](C(C)C)N(C)C(=O)CCc1ccccc1)[C@@H](C)CC)C(=O)N[C@@H](CC(=O)O)C(=O)N[C@@H](CC(C)C)C(=O)O [Entry 1] (Hydrocinnamoyl-[NMeV]ID(O(2S-octyl))DL-OH) | 6.15 |
| CCCCCC[C@@H](C)OC(=O)C[C@H](NC(=O)[C@@H](NC(=O)[C@H](C(C)C)N(C)C(=O)CCc1ccccc1)[C@@H](C)CC)C(=O)N[C@@H](CC(=O)O)C(=O)N[C@@H](CC(C)C)C(=O)O [Entry 2] (Hydrocinnamoyl-[NMeV]ID(X1)DL-OH) | 6.15 |
| CC[C@H](C)[C@H](NC(=O)[C@H](C(C)C)N(C)C(=O)CCc1ccccc1)C(=O)N[C@@H](CC(=O)N(C)C)C(=O)N[C@@H](CC(=O)O)C(=O)N[C@@H](CC(C)C)C(=O)O [Entry 3] (Hydrocinnamoyl-[NMeV]ID(NMe2)DL-OH) | 6.72 |
| CC[C@H](C)[C@H](NC(=O)[C@H](C(C)C)N(C)C(=O)CCc1ccccc1)C(=O)N[C@@H](CC(=O)N(CC)CC)C(=O)N[C@@H](CC(=O)O)C(=O)N[C@@H](CC(C)C)C(=O)O [Entry 4] (Hydrocinnamoyl-[NMeV]ID(NEt2)DL-OH) | 6.59 |
| CC[C@H](C)[C@H](NC(=O)[C@H](C(C)C)N(C)C(=O)CCc1ccccc1)C(=O)N[C@@H](CC(=O)N(C(C)C)C(C)C)C(=O)N[C@@H](CC(=O)O)C(=O)N[C@@H](CC(C)C)C(=O)O [Entry 5] (Hydrocinnamoyl-[NMeV]ID(NiPr2)DL-OH) | 6.60 |
| CC[C@H](C)[C@H](NC(=O)[C@H](C(C)C)N(C)C(=O)CCc1ccccc1)C(=O)N[C@@H](CC(=O)N1CCCC1)C(=O)N[C@@H](CC(=O)O)C(=O)N[C@@H](CC(C)C)C(=O)O [Entry 6] (Hydrocinnamoyl-[NMeV]ID(Pyrrolidide)DL-OH) | 6.96 |
| CC[C@H](C)[C@H](NC(=O)[C@H](C(C)C)N(C)C(=O)CCc1ccccc1)C(=O)N[C@@H](CC(=O)N1CCOCC1)C(=O)N[C@@H](CC(=O)O)C(=O)N[C@@H](CC(C)C)C(=O)O [Entry 7] (Hydrocinnamoyl-[NMeV]ID(Morpholide)DL-OH) | 6.74 |
| CC[C@H](C)[C@H](NC(=O)[C@H](C(C)C)N(C)C(=O)CCc1ccccc1)C(=O)N[C@@H](CC(=O)N(C)OC)C(=O)N[C@@H](CC(=O)O)C(=O)N[C@@H](CC(C)C)C(=O)O [Entry 8] (Hydrocinnamoyl-[NMeV]ID(N(Me)OMe)DL-OH) | 6.72 |
| CC[C@H](C)[C@H](NC(=O)[C@H](C(C)C)N(C)C(=O)CCc1ccc(O)cc1)C(=O)N[C@@H](CC(=O)OCCCc1ccccc1)C(=O)N[C@@H](CC(=O)O)C(=O)N[C@@H](CC(C)C)C(=O)O [Entry 9] (Desaminotyrosyl-[NMeV]ID(X3)DL-OH) | 6.19 |
| CC[C@H](C)[C@H](NC(=O)[C@H](C(C)C)N(C)C(=O)CCc1ccc(O)cc1)C(=O)N[C@@H](CC(=O)Nc1ccccc1)C(=O)N[C@@H](CC(=O)O)C(=O)N[C@@H](CC(C)C)C(=O)O [Entry 10] (Desaminotyrosyl-[NMeV]ID(NHPh)DL-OH) | 5.80 |
| CC[C@H](C)[C@H](NC(=O)[C@H](C(C)C)N(C)C(=O)CCc1ccc(O)cc1)C(=O)N[C@@H](CC(=O)NCCc1ccccc1)C(=O)N[C@@H](CC(=O)O)C(=O)N[C@@H](CC(C)C)C(=O)O [Entry 11] (Desaminotyrosyl-[NMeV]ID(NHPhenethyl)DL-OH) | 6.29 |
| CC[C@H](C)[C@H](NC(=O)[C@H](C(C)C)N(C)C(=O)CCc1ccc(O)cc1)C(=O)N[C@@H](CC(=O)N(C)C)C(=O)N[C@@H](CC(=O)O)C(=O)N[C@@H](CC(C)C)C(=O)O [Entry 12] (Desaminotyrosyl-[NMeV]ID(NMe2)DL-OH) | 7.05 |
| CC[C@H](C)[C@H](NC(=O)[C@H](C(C)C)N(C)C(=O)CCc1ccc(O)cc1)C(=O)N[C@@H](CC(=O)N(CC)CC)C(=O)N[C@@H](CC(=O)O)C(=O)N[C@@H](CC(C)C)C(=O)O [Entry 13, DAT-N-Me-Val-Ile-Asp(NEt₂)-Asp-Leu-OH] (Desaminotyrosyl-[NMeV]ID(NEt2)DL-OH) | 6.57 |
| CC[C@H](C)[C@H](NC(=O)[C@H](C(C)C)N(C)C(=O)CCc1ccc(O)cc1)C(=O)N[C@@H](CC(=O)N(C)CCc1ccccc1)C(=O)N[C@@H](CC(=O)O)C(=O)N[C@@H](CC(C)C)C(=O)O [Entry 14] (Desaminotyrosyl-[NMeV]ID(N(Me)CH2CH2Ph)DL-OH) | 6.42 |
| CC[C@H](C)[C@H](NC(=O)[C@H](C(C)C)N(C)C(=O)CCc1ccc(O)cc1)C(=O)N[C@@H](CC(=O)N(C)CCc1ccccn1)C(=O)N[C@@H](CC(=O)O)C(=O)N[C@@H](CC(C)C)C(=O)O [Entry 15] (Desaminotyrosyl-[NMeV]ID(X8)DL-OH) | 6.54 |
| CC[C@H](C)[C@H](NC(=O)[C@H](C(C)C)N(C)C(=O)CCc1ccc(O)cc1)C(=O)N[C@@H](CC(=O)N1CCOCC1)C(=O)N[C@@H](CC(=O)O)C(=O)N[C@@H](CC(C)C)C(=O)O [Entry 16] (Desaminotyrosyl-[NMeV]ID(Morpholide)DL-OH) | 6.43 |
| CC[C@H](C)[C@H](NC(=O)[C@@H](NC(=O)CCc1ccc(O)cc1)C(C)C)C(=O)N[C@@H](CC(=O)NCCc1ccccc1)C(=O)N[C@@H](CC(=O)O)C(=O)N[C@@H](CC(C)C)C(=O)O [Entry 17] (Desaminotyrosyl-VID(NHPhenethyl)DL-OH) | 5.77 |
| CCNC(=O)C[C@H](NC(=O)[C@@H](NC(=O)[C@@H](NC(=O)CCc1ccc(O)cc1)C(C)C)[C@@H](C)CC)C(=O)N[C@@H](CC(=O)O)C(=O)N[C@@H](CC(C)C)C(=O)O [Entry 18] (Desaminotyrosyl-VID(NHEt)DL-OH) | 5.76 |
| CC[C@H](C)[C@H](NC(=O)[C@@H](NC(=O)CCc1ccc(O)cc1)C(C)C)C(=O)N[C@@H](CC(=O)N(CC)CC)C(=O)N[C@@H](CC(=O)O)C(=O)N[C@@H](CC(C)C)C(=O)O [Entry 19] (Desaminotyrosyl-VID(NEt2)DL-OH) | 6.25 |
| CC[C@H](C)[C@H](NC(=O)[C@@H](NC(=O)CCc1ccc(O)cc1)C(C)C)C(=O)N[C@@H](CC(=O)N(C)CCc1ccccc1)C(=O)N[C@@H](CC(=O)O)C(=O)N[C@@H](CC(C)C)C(=O)O [Entry 20] (Desaminotyrosyl-VID(N(Me)CH2CH2Ph)DL-OH) | 6.26 |
| CC[C@H](C)[C@H](NC(=O)[C@@H](NC(=O)c1ccccc1-c1ccccc1)C(C)C)C(=O)N[C@@H](CC(=O)NCCc1ccccc1)C(=O)N[C@@H](CC(=O)O)C(=O)N[C@@H](CC(C)C)C(=O)O [Entry 21, 2-Biphenylylcarbonyl-Val-Ile-Asp-(NHCH₂CH₂Ph)-Asp-Leu-OH] ({Benzoyl(2-Ph)}-VID(NHPhenethyl)DL-OH) | 5.90 |
| CC[C@H](C)[C@H](NC(=O)[C@@H](NC(=O)c1ccccc1)C(C)C)C(=O)N[C@@H](CC(=O)NCCc1ccccc1)C(=O)N[C@@H](CC(=O)O)C(=O)N[C@@H](CC(C)C)C(=O)O [Entry 22, Benzoyl-Val-Ile-Asp-(NHCH₂CH₂Ph)-Asp-Leu-OH] (Bz-VID(NHPhenethyl)DL-OH) | 5.12 |
| CC[C@H](C)[C@H](NC(=O)[C@@H](NC(C)=O)C(C)C)C(=O)N[C@@H](CC(=O)NCCc1ccccc1)C(=O)N[C@@H](CC(=O)O)C(=O)N[C@@H](CC(C)C)C(=O)O [Entry 23, Ac-Val-Ile-Asp(NHCH₂CH₂Ph)-Asp-Leu-OH] (Ac-VID(NHPhenethyl)DL-OH) | 4.74 |
| CC[C@H](C)[C@H](NC(=O)[C@H](C(C)C)N(C)C(=O)CCC(C)C)C(=O)N[C@@H](CC(=O)N(CC)CC)C(=O)N[C@@H](CC(=O)O)C(=O)N[C@@H](CC(C)C)C(=O)O [Entry 25, 4-Methylpentanoyl-N-Me-Val-Ile-Asp(NEt₂)-Asp-Leu-OH] ({Pentanoyl(4-Me)}-[NMeV]ID(NEt2)DL-OH) | 6.30 |
| CCN(CC)C(=O)C[C@H](NC(=O)[C@@H](NC(=O)[C@H](C(C)C)N(C)C(=O)CCc1ccccc1)[C@@H](C)O)C(=O)N[C@@H](CC(=O)O)C(=O)N[C@@H](CC(C)C)C(=O)O [Entry 26, PhCH₂CH₂CO-N-Me-Val-Thr-Asp(NEt₂)-Asp-Leu-OH] (Hydrocinnamoyl-[NMeV]TD(NEt2)DL-OH) | 6.52 |
| CC[C@H](C)[C@H](NC(=O)[C@H](C(C)C)N(C)C(=O)CCc1ccccc1)C(=O)N[C@@H](CC(=O)N1CCOCC1)C(=O)N[C@@H](CC(=O)O)C(=O)N[C@@H](CC(C)C)C(=O)N(CC)CC [Entry 27, PhCH₂CH₂CO-N-Me-Val-Ile-Asp(morpholino)-Asp-Leu-NEt₂] (Hydrocinnamoyl-[NMeV]ID(Morpholide)DL-NEt2) | 5.59 |
| CC[C@H](C)[C@H](NC(=O)[C@H](C(C)C)N(C)C(=O)CCc1ccc(O)c(O)c1)C(=O)N[C@@H](CC(=O)N1CCCC1)C(=O)N[C@@H](CC(=O)O)C(=O)N[C@@H](CC(C)C)C(=O)O [Entry 28, (3,4-Dihydroxy-Ph)-CH₂CH₂CO-N-Me-Val-Ile-Asp(pyrrolidino)-Asp-Leu-OH] (Dihydrocaffeoyl-[NMeV]ID(Pyrrolidide)DL-OH) | 6.60 |
